In assay [1] the target is Norepinephrine transporter (Rattus norvegicus, UniProt Q9WTR4). Briefly: In vitro inhibition of NE uptake at NE uptake site. The format is functional.
For assay [2], the system named is Rattus norvegicus. The assay can be described thus: Compound (po) was tested in vivo for inhibition of MAO activity remaining inside (N) DA synaptosomes of rat striatum. Type of assay: functional.
Assay [3] deals with T1, Monoamine oxidase (Rattus norvegicus, UniProt P19643+P21396).
T1 sequence (P19643 whole entry): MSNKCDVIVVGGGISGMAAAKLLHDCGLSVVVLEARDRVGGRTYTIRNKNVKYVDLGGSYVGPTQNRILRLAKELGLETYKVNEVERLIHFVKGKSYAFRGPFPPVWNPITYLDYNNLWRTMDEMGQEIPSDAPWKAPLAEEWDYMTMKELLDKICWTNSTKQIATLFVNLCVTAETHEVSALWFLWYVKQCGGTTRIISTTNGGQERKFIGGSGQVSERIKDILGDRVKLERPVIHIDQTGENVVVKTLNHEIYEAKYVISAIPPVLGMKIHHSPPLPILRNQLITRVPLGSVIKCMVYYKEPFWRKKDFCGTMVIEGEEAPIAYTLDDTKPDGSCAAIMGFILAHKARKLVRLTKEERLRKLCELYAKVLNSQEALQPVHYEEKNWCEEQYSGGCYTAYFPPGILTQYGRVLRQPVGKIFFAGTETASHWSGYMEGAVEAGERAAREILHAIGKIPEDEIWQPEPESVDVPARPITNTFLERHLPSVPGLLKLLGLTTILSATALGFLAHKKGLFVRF
T1 sequence (P21396 whole entry): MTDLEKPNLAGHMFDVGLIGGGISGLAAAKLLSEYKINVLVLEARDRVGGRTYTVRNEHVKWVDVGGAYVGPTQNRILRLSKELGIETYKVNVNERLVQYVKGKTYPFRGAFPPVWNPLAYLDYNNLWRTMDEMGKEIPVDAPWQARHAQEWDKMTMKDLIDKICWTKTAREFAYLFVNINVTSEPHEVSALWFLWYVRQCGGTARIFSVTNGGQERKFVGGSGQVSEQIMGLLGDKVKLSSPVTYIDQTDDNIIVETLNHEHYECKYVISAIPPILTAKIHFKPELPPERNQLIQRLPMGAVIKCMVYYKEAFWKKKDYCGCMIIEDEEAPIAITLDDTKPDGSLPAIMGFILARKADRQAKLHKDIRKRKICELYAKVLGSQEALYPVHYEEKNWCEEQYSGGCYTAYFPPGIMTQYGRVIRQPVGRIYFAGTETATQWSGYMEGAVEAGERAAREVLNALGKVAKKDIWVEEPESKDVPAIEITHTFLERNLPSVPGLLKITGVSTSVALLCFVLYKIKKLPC
The assay can be described thus: Compound was tested in vitro for inhibition of Monoamino oxidase by using [14C]phenylethylamine as substrate in rat brain mitochondrial preparation. Type of assay: tissue-based.

The species named for assay [4] is Rattus norvegicus. The assay can be described thus: The lowest dose that release NE causing reversal of ptosis in rat. The format is functional.
Assay [5] relates to Rattus norvegicus. Briefly: Compound (po) was tested in vivo for inhibition of MAO activity remaining inside (N) NE synaptosomes of rat hypothalamus. Type of assay: functional.
Assay [6] deals with Sodium-dependent serotonin transporter (Rattus norvegicus, UniProt P31652). Briefly: Compound was tested in vitro for inhibition of Serotonin transporter uptake at serotonin uptake site.
Sequence of Sodium-dependent serotonin transporter (P31652 whole entry): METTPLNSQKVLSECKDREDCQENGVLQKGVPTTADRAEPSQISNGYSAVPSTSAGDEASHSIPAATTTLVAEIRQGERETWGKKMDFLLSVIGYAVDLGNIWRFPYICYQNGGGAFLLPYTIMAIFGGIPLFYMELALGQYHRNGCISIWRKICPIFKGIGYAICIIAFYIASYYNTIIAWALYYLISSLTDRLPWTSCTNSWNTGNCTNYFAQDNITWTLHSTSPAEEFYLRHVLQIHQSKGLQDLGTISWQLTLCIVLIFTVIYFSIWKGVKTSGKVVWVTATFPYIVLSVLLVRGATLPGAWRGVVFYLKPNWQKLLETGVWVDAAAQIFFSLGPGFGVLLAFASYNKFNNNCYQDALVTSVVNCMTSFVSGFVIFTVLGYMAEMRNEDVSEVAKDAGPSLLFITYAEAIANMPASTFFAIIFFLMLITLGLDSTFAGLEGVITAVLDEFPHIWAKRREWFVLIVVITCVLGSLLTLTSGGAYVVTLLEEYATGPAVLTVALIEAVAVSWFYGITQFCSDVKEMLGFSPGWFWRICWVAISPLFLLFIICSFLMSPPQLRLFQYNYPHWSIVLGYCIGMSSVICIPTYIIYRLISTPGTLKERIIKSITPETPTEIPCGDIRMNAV
Assay [7] in a line: Ratio of the inhibition of MAO using [14C]-PEA and [14C]5-HT in rat brain. Type of assay: tissue-based.
The test system of assay [8] is Rattus norvegicus. Briefly: Compound (po) was tested in vivo for inhibition of Monoamino oxidase activity remaining inside (N) 5-HT synaptosomes of rat hypothalamus. Type of assay: functional.
For assay [9], the target named is Sodium-dependent dopamine transporter (Rattus norvegicus, UniProt P23977). Briefly: In […] inhibition of DA uptake at dopamine uptake site. Type of assay: functional.
Sequence of Sodium-dependent dopamine transporter (P23977 whole entry): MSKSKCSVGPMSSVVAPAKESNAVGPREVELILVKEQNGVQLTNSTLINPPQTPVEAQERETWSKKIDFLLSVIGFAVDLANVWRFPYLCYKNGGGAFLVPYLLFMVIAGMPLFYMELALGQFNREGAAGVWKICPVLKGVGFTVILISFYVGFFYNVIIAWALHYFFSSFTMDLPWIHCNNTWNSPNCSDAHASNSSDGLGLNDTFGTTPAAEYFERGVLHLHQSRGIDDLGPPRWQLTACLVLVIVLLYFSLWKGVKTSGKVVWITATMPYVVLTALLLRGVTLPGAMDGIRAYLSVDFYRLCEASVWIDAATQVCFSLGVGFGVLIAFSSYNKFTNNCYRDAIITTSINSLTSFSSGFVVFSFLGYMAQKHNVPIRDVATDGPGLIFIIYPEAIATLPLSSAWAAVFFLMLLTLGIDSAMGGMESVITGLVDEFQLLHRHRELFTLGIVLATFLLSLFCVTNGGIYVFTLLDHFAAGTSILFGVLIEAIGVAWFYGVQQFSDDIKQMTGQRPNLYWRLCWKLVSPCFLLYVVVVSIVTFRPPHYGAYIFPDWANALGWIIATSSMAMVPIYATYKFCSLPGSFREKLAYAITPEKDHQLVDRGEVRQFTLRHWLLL
The species entered for assay [10] is Rattus norvegicus. The assay can be described thus: The lowest dose that release DA causing increased motor activity in rat. Type of assay: functional.
Assay [11] relates to Rattus norvegicus. Briefly: (§1) Compound (po) was tested in vivo for inhibition of MAO activity remaining outside (EN) DA synaptosomes of rat striatum. The format is functional.
Assay [12] is filed under the species Rattus norvegicus. The assay can be described thus: The lowest dose that release 5-HT causing a serotonin syndrome in rat. Type of assay: functional.
Assay [13] has as its target T1, Monoamine oxidase. Briefly: Compound was tested in vitro for inhibition of Monoamino oxidase by using [14C]5-HT as substrate in rat brain mitochondrial preparation. The format is tissue-based.
Assay [14] relates to Rattus norvegicus. The assay can be described thus: Compound (po) was tested in vivo for inhibition of MAO activity remaining inside (N) 5-HT synaptosomes of rat hypothalamus. The format is functional.
The nature of assay [15]: Ratio of inhibition of MAO activity remaining outside (EN) and inside (N) synaptosomes. Type of assay: subcellular. As to conditions: Brain.
Assay [16] addresses T1, Monoamine oxidase. Briefly: Compound was tested in vitro for inhibition of MAO by using [14C]5-HT as substrate in rat brain mitochondrial preparation. The format is tissue-based.
Assay [17] deals with T1, Monoamine oxidase. The assay can be described thus: Compound was tested in vitro for inhibition of MAO by using [14C]phenylethylamine as substrate in rat brain mitochondrial preparation. Type of assay: tissue-based.
The subject of assay [18] is Rattus norvegicus. Briefly: Compound (po) was tested in vivo for inhibition of MAO activity remaining outside (EN) 5-HT synaptosomes of rat hypothalamus. The format is functional.
Assay [19] in a line: as §1. The format is functional.

Molecules are shown by their SMILES. Where “and” joins values, the source holds several entries; their conditions need not be identical. Identical values can stand only once.

Sequence of Norepinephrine transporter (Q9WTR4 whole entry): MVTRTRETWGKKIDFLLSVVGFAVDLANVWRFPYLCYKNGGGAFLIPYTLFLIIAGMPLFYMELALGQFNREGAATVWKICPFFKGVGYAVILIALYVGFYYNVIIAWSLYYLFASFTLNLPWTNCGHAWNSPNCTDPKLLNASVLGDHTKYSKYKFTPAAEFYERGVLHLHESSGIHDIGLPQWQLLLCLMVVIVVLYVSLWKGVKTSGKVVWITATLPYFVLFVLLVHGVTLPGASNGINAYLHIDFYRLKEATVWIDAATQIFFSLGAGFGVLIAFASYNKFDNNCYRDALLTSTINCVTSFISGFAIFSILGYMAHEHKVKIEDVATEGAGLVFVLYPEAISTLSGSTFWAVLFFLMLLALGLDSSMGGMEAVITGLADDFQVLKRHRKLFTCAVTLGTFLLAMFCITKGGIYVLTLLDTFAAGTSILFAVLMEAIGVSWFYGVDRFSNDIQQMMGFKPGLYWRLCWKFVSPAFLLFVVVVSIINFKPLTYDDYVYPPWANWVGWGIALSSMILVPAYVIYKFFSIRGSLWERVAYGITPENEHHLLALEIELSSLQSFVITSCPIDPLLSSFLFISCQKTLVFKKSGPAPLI

A word on the IC50: it is the concentration at which inhibition is half-maximal. Read a low IC50 as greater potency in that assay. Usually ED50 stands for the dose at which the effect has come halfway, by size or by number of responders. As for `CCC(N)Cc1ccc2c(c1)CCN2` (configuration not stated), the IC50 in assay [1] came to 0.5 µM; at Monoamine oxidase [3] it was 800 µM; in assay [6], 3.6 µM; in assay [9] it was 10 µM; against Monoamine oxidase [13] it was 14 µM. For the same compound, the ED50 was 26 µmol/kg with Rattus norvegicus [2]; 128 µmol/kg in the assay filed under Rattus norvegicus [4]; 32 µmol/kg with Rattus norvegicus [5]; 11 µmol/kg in the assay on Rattus norvegicus [8]; over 256 µmol/kg in the assay filed under Rattus norvegicus [10]; 74 µmol/kg in the assay with Rattus norvegicus [11]. Further, the 50% effective dose (ED50) in the assay filed under Rattus norvegicus [12] was found to be 64 µmol/kg. For the same compound, the Ratio in [7] came out at 57.
Regarding `CCC(N)Cc1ccc2c(c1Cl)CCN2` (configuration not stated), the IC50 was 1.6 µM in [1], 0.3 µM in assay [6] and over 10 µM in [9]. In addition, the ED50 in the assay with Rattus norvegicus [2] was 12 µmol/kg; in the assay filed under Rattus norvegicus [4], over 112 µmol/kg; in the assay with Rattus norvegicus [5] it was 11 µmol/kg; in the assay on Rattus norvegicus [14], 9.1 µmol/kg; in the assay filed under Rattus norvegicus [10], over 112 µmol/kg; with Rattus norvegicus [11], 28 µmol/kg. This compound displayed an ED50 in the assay filed under Rattus norvegicus [12] of 28 µmol/kg. Further, the Ratio in assay [15] is 2 (2×) and 2.3.
With `CC(N)Cc1ccc2c(c1)CCN2` (configuration not stated), the IC50 in assay [1] is 0.36 µM; on Monoamine oxidase [16], 5 µM; in assay [6], 1.8 µM; on Monoamine oxidase [17], over 100 µM; in assay [9], 3.8 µM. Moreover, the ED50 turned out to be 0.8 µmol/kg with Rattus norvegicus [2]; 17 µmol/kg in the assay listed under Rattus norvegicus [4]; 1.1 µmol/kg with Rattus norvegicus [5]; 1.8 µmol/kg with Rattus norvegicus [14]; 42 µmol/kg in the assay filed under Rattus norvegicus [10]; 20 µmol/kg with Rattus norvegicus [11]. In the assay filed under Rattus norvegicus [12], this compound registered an ED50 of 42 µmol/kg. Also, the Ratio in [7] is over 20; in assay [15] it was > 15 and > 31 and 25.
Regarding `Cc1cc(N(C)C)ccc1CC(C)N` (configuration not stated), the IC50 was 0.65 µM in assay [1]; 0.8 µM on Monoamine oxidase [16]; 0.1 µM in [6]; over 1000 µM at Monoamine oxidase [17]; over 10 µM in [9]. Moreover, the ED50 in the assay on Rattus norvegicus [2] is 3.3 µmol/kg; in the assay filed under Rattus norvegicus [4] it was 15 µmol/kg; with Rattus norvegicus [5] it was 2 µmol/kg; with Rattus norvegicus [14], 1.1 µmol/kg; in the assay listed under Rattus norvegicus [10], over 300 µmol/kg; in the assay on Rattus norvegicus [11], 4.4 µmol/kg. The same compound displayed an ED50 in the assay filed under Rattus norvegicus [12] of 7.5 µmol/kg. Moreover, the Ratio in [7] is over 1250.
For the compound `Cc1cc2c(cc1CC(C)N)CCN2` (configuration not stated), the IC50 in assay [1] is 6 µM; against Monoamine oxidase [16] it was 13 µM; in assay [6], over 16 µM; on Monoamine oxidase [17], 170 µM; in assay [9], 6 µM. Besides, the ED50 in the assay with Rattus norvegicus [2] is over 61 µmol/kg; in the assay filed under Rattus norvegicus [4] it was over 61 µmol/kg; in the assay with Rattus norvegicus [5], 49 µmol/kg; with Rattus norvegicus [14] it was over 61 µmol/kg; in the assay listed under Rattus norvegicus [10] it was over 61 µmol/kg; in the assay on Rattus norvegicus [11], over 61 µmol/kg. The ED50 in the assay listed under Rattus norvegicus [12] was over 61 µmol/kg. Besides, the results for the Ratio in assay [7] and in [15] were 13 and over 1, respectively.
Consider `Cc1c(CC(C)N)ccc2c1CCN2` (configuration not stated), for which the IC50 is 0.75 µM in [1]; 0.8 µM at Monoamine oxidase [16]; 0.38 µM in assay [6]; over 500 µM against Monoamine oxidase [17]; 9 µM in assay [9]. Also, the ED50 was 4.6 µmol/kg in the assay on Rattus norvegicus [2]; 128 µmol/kg in the assay listed under Rattus norvegicus [4]; 1.1 µmol/kg in the assay with Rattus norvegicus [5]; 0.8 µmol/kg with Rattus norvegicus [14]; over 128 µmol/kg in the assay filed under Rattus norvegicus [10]; 13 µmol/kg in the assay with Rattus norvegicus [11]. Also, it took a dose of 64 µmol/kg to reach the 50% effect level in the assay filed under Rattus norvegicus [12] (ED50). Besides, in [7], the Ratio is over 625.
Regarding `CCN1CCc2c1ccc(CC(C)N)c2C` (configuration not stated), the IC50 in assay [1] is 7.5 µM; against Monoamine oxidase [16] it was 1.1 µM; in assay [6] it was 1.5 µM; at Monoamine oxidase [17], over 500 µM; in [9] it was over 10 µM. The ED50 in the assay with Rattus norvegicus [2] is 10 µmol/kg; in the assay filed under Rattus norvegicus [4], over 87 µmol/kg; with Rattus norvegicus [5], 9 µmol/kg; with Rattus norvegicus [14], 13 µmol/kg; in the assay filed under Rattus norvegicus [10] it was over 87 µmol/kg; with Rattus norvegicus [11], 16 µmol/kg. In the assay listed under Rattus norvegicus [12], this compound had an ED50 of 87 µmol/kg. In addition, in assay [7], the Ratio is over 455.
As to `CC(N)Cc1ccc2c(c1Cl)CCN2` (configuration not stated), the IC50 in assay [1] was 0.32 µM; against Monoamine oxidase [16] it was 0.2 µM; in assay [6] it was 0.34 µM; at Monoamine oxidase [17], 800 µM; in [9], over 10 µM. Also, the ED50 with Rattus norvegicus [2] was 2.2 µmol/kg; in the assay filed under Rattus norvegicus [4] it was 59 µmol/kg; with Rattus norvegicus [5], 1.6 µmol/kg; with Rattus norvegicus [14], 1.5 µmol/kg; in the assay filed under Rattus norvegicus [10] it was over 59 µmol/kg; with Rattus norvegicus [11], 4.1 µmol/kg. Moreover, the 50% effect level in the assay filed under Rattus norvegicus [12] (ED50) was put at a dose of 59 µmol/kg. In addition, the Ratio in [7] turned out to be 4000.
With `CC(C)(N)Cc1ccc2c(c1)CCN2`, the IC50 is 2.7 µM in assay [1]; 2.8 µM against Monoamine oxidase [16]; 1.9 µM in assay [6]; 2600 µM on Monoamine oxidase [17]; over 10 µM in assay [9]. For the same compound, the median effective dose (ED50) in the assay on Rattus norvegicus [2] is 8 µmol/kg; in the assay filed under Rattus norvegicus [4], 64 µmol/kg; in the assay with Rattus norvegicus [5], 12 µmol/kg; in the assay on Rattus norvegicus [14], 4.4 µmol/kg; in the assay listed under Rattus norvegicus [10], over 256 µmol/kg; with Rattus norvegicus [11], 36 µmol/kg. Moreover, in the assay filed under Rattus norvegicus [12], it took a dose of 128 µmol/kg to reach the 50% effect level (ED50). The Ratio in assay [7] worked out at 929.
With `CCN1CCc2cc(CC(C)N)c(C)cc21` (configuration not stated), the IC50 in assay [1] is 2.5 µM; on Monoamine oxidase [16] it was 0.33 µM; in assay [6], 2.2 µM; on Monoamine oxidase [17] it was 77 µM; in assay [9], over 10 µM. Besides, the 50% effective dose (ED50) was 12 µmol/kg in the assay with Rattus norvegicus [2]; 87 µmol/kg in the assay listed under Rattus norvegicus [4]; 17 µmol/kg in the assay on Rattus norvegicus [5]; over 27 µmol/kg in the assay with Rattus norvegicus [14]; over 27 µmol/kg in the assay on Rattus norvegicus [18]; over 87 µmol/kg in the assay filed under Rattus norvegicus [10]. For the same compound, the results for the median effective dose (ED50) (in [19]; in the assay filed under Rattus norvegicus [12]) were 17 µmol/kg and over 87 µmol/kg, respectively. The Ratio in assay [7] is 233; in assay [15], > 3 and 1.4.

Source of the values: ChEMBL document CHEMBL1123336, “Selective monoamine oxidase inhibitors. 3. Cyclic compounds related to 4-aminophenethylamine. Preparation and neuron-selective action of some 5-(2-aminoethyl)-2,3-dihydroindoles” (J Med Chem, 1986).
